The text below walks through data of ChEMBL document CHEMBL6115010, “Targeting glioma with heteroaromatic alkaloids: A review of potential therapeutics” (Bioorg Med Chem, 2025).

For experiment [1], the system named is U-87 MG. The experiment can be described thus: Antitumor activity against human U-87 MG cells implanted with chicken egg assessed as reduction in tumor weight at 10 uM measured after 7 days by microscopic analysis (reference value: 27.87+/-4.7 mg). In kind it is functional, U-87MG ATCC. Particulars: time 7 day.
Experiment [2] concerns SK-N-SH. The experiment can be described thus: Induction of apoptosis in human SK-N-SH cells assessed as early apoptotic cells at 100 micromol/L incubated for 48 hrs by Annexin V-FITC/Propidium Iodide staining based flow cytometry analysis (reference value: 10.3 %). As to conditions: dose 100 µmol/L, at 100 µM. In kind it is functional. On the technique in general: Flow cytometry measures light scatter and fluorescence of single cells or particles in a stream.

The test system of experiment [3] is SK-N-SH. The experiment can be described thus: Induction of apoptosis in human SK-N-SH cells assessed as early apoptotic cells at 200 micromol/L incubated for 48 hrs by Annexin V-FITC/Propidium Iodide staining based flow cytometry analysis (reference value: 10.3 %). Particulars: dose 200 µmol/L, at 200 µM. In kind it is functional.
The subject of experiment [4] is U-87 MG. The experiment can be described thus: Cytotoxicity against human U-87 MG cells assessed as reduction in cell viability at 400 uM measured for 24 hrs relative to control. The experiment is classed as functional, U-87MG ATCC.
A further experiment has as its system T98G. Put plainly: Cytotoxicity against human T98G cells assessed as reduction in cell viability at 400 uM measured for 24 hrs relative to control. The experiment is classed as functional.
Another experiment deals with SH-SY5Y. The experiment can be described thus: Cytotoxicity against human SH-SY5Y cells assessed as reduction in cell viability incubated for 24 hrs by MTT assay. In kind it is functional, cell-based. In general terms: Tetrazolium dyes change colour on reduction, which living cells bring about.
The next experiment deals with U-251. The experiment can be described thus: Cytotoxicity against human U-251MG cells assessed as cell growth inhibition incubated for 24 hrs by MTT assay. The experiment is classed as functional, cell-based. Particulars: U-251, 24 h.
Experiment [5] is described as follows: Antiproliferative activity against mouse GL26 cells assessed as reduction in cell viability measured for 96 hrs by MTT assay. In kind it is functional, cell-based. As to conditions: GL26, 96 h.
Experiment [6] deals with U-87 MG. The experiment can be described thus: Antiproliferative activity against human U-87 MG cells assessed as reduction in cell viability measured for 96 hrs by MTT assay. In kind it is functional, cell-based, U-87MG ATCC.
A further experiment has as its system SNB-19. Put plainly: Antiproliferative activity against human SNB-19 cells assessed as reduction in cell viability measured for 96 hrs by MTT assay. The experiment is classed as functional, cell-based. Particulars: SNB-19, 96 h.
For experiment [7], the system named is C6. The experiment can be described thus: Antiproliferative activity against rat C6 cells assessed as reduction in cell viability measured for 96 hrs by MTT assay. Particulars: C6, 96 h. The experiment is classed as functional, cell-based.
For the next experiment, the system named is 9L. Put plainly: Antiproliferative activity against rat 9L cells assessed as reduction in cell viability measured for 96 hrs by MTT assay. In kind it is functional, cell-based.
Experiment [8] concerns U-87 MG. Put plainly: Antitumor activity against human U-87MG cells xenografted in athymic nude mouse model assessed as tumor growth inhibition at 30 mg/kg, ip administered once daily for 12 days relative to control. In kind it is functional, U-87MG ATCC. As to conditions: 288 h, time 12 day, read-out: TGI. (In general: In xenograft studies the graft and the host belong to different species.)

The subject of experiment [9] is C6. Put plainly: Antitumor activity against rat C6 cells implanted in athymic nude mouse model assessed as tumor growth inhibition at 30 mg/kg, ip administered once daily for 12 days and measured after 34 days relative to control. The experiment is classed as functional. As to conditions: C6, 816 h, time 34 day, read-out: TGI.
Experiment [10] relates to C6. The experiment can be described thus: Antitumor activity against rat C6 cells implanted in athymic nude mouse model assessed as tumor growth inhibition at 30 mg/kg, sc administered once daily for 12 days and measured after 34 days relative to control. In kind it is functional. Particulars: C6, 288 h, time 12 day, read-out: TGI.

In the case of `COc1cc2c3cc1Oc1c(OC)c(OC)cc4c1[C@@H](Cc1ccc(O)c(c1)Oc1ccc(cc1)C[C@@H]3N(C)CC2)N(C)CC4` [BERBAMINE], in the experiment on U-87 MG [1], the Activity amounted to 5.28 mg.

Regarding `Nc1ncnc2c1ncn2[C@@H]1O[C@H](CO)C[C@H]1O` [CORDYCEPIN], the Activity in the experiment with SK-N-SH [2] is 29.8%; with SK-N-SH [3], 29.8%; with U-87 MG [4], 35%; in the experiment with T98G it was 76%. For the same compound, the IC50 with SH-SY5Y came out at 175 µM; in the experiment with U-251, 250 µM.

`CC(C)=CCC/C(C)=C/CC/C(C)=C/CN1C(=O)c2cccc(O)c2Nc2c(O)cc(O)cc21` [DIAZEPINOMICIN]: the IC50 turned out to be 8.9 µM in experiment [5]; 10.9 µM with U-87 MG [6]; 5.3 µM in the experiment on SNB-19; 4.3 µM in the experiment with C6 [7]; 8.3 µM with 9L. Moreover, the inhibition in vivo at 30 mg/kg in the experiment with U-87 MG [8] amounted to 36%; with C6 [9] it was 66%; in the experiment on C6 [10], 60%.

In general, IC50 refers to the concentration needed to halve the response being measured.
